Experimental data from patent publication US7384961B2, “Saturated and unsaturated heteroarylcycloalkylmethyl amines as anti-depressants” (priority 2002, dated 2008).
Marks after values point to notes of the source that are not given here.

Assays:
[1] = test system: mice; test: Isolation-induced pup vocalization test in mice; type: in vivo; conditions: for ED50: sc, read-out: Change in vocalization frequency versus control, ED50 value
Method: d) Investigation of the Anxiolytic Action in the Isolation-Induced Pup Vocalization Test in Mice
The isolation-induced pup vocalization test in mice was used to investigate anxiolytic actions (Fish, E. W., Sekinda, M., Ferrari, P. F., Dirks, A., Miczek, K. A., Psychopharmacology, vol. 149, p. 277-285, (2000)). Litters of 7 to 13 mice were used for the testing. At the age of 7 days the animals were separated from the mother and placed in an incubation cage with an internal temperature of approx. 34° C. For determination of the vocalizations in the ultrasonic range, the animals were placed individually on a temperature-controlled platform (23 cm×23 cm, divided by a grid into fields of 2 cm×2 cm, 19±1° C.) of a soundproofed test chamber for a duration of 30 sec. The ultrasonic vocalizations were recorded with a high-frequency capacitor microphone, filtered, amplified, digitalized and plotted and analysed using commercial software. Only animals with pre-values of at least 6 vocalizations within 30 sec and a body weight of 3.5 to 5.5 g were employed for the testing. After subcutaneous (s.c.) injection of substance or vehicle, the animals were returned to the incubation cage for a duration of 10 min and then placed individually again on the temperature-controlled plate of the test chamber for a duration of 4 min. In addition to the number of vocalizations, crossings of the grid of the plate and body turns of the mice were determined to investigate influences of the substance on locomotor activity and coordination. Changes in the vocalization frequencies, crossings of the grid and body turns were stated relative to the vehicle control. A reduction in the vocalization frequency is described for anxiolytics.

[2] = biological target: T1, NA re-uptake (Rattus norvegicus, UniProt Q63380); test: Inhibition of NA re-uptake in rat brain synaptosomes (P2 fraction, hypothalamus); type: biochemical; conditions: 10 μmol/l
T1 construct: synaptosomes are freshly isolated from rat brain areas; from tissue; host or cells: rat brain synaptosomes (P2 fraction), hypothalamus
T1 sequence (Q63380 1-617): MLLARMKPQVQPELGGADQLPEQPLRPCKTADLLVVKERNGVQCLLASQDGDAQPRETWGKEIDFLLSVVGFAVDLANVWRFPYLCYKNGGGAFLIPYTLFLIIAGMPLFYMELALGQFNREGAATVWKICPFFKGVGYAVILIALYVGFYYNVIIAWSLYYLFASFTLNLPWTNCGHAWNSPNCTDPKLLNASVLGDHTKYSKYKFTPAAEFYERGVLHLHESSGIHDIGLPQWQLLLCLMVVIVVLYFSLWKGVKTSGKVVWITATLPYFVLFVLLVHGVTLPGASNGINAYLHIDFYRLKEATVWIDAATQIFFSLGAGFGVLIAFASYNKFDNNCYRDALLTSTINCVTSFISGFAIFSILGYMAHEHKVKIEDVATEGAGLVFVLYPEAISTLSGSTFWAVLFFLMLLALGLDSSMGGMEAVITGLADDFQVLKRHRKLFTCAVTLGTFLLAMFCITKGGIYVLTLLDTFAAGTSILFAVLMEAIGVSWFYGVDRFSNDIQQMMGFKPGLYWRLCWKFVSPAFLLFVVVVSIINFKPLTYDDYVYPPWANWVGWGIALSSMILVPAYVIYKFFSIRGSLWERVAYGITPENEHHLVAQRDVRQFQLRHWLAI
Source text: (§1) a) Investigations of the Inhibition of the Re-uptake of 5-HT and NA
(§2) In order to be able to carry out these in vitro studies, synaptosomes are freshly isolated from rat brain areas. […] These vesicular particles are isolated from the hypothalamus for the NA re-uptake and from the medulla +pons region of male rat brains for the 5-HT re-uptake.
(§3) The IC50 values were obtained with the aid of the “Figure P” computer program (version 6.0, Biosoft, Cambridge, England). […] The “Ligand” computer program (version 4, Biosoft, England) was used to obtain KD values.

[3] = test system: mice; test: Formalin test in mice (analgesic action, chronic pain component); type: in vivo; conditions: for ED50: Mus musculus, read-out: Inhibition of the nociceptive behaviour versus control, ED50 value
Method: b) Investigations of the Analgesic Actions in the Formalin Test in Mice
The formalin test (Dubuisson, D. and Dennis, S. G., 1977, Pain, 4, 161-174) represents a model of acute and chronic pain. The chronic pain component was evaluated in the investigations described here.
A biphase nociceptive reaction which is recorded by observing three behaviour patterns which can be clearly differentiated from one another is induced in freely mobile test animals by a single formalin injection into the dorsal side of a hind paw.
Formalin is administered subcutaneously into the dorsal side of the right hind paw of each animal in a volume of 20 μl and a concentration of 1%.
The specific changes in behaviour which differ from the normal behaviour (score 0), such as raising (score 1) and shaking the paw (score 2) and biting and licking reactions (score 3), are observed and recorded continuously at component intervals of 3 min for up to 60 min after the administration of formalin. The changes in behaviour are weighted in different ways (score 0-3) and a pain rate (PR) is calculated using the following formula: PR=[(T0×0)+(T1×1)+(T2×2)+(T3×3)]/180.
The group size is 10 animals (n=10).
On the basis of the PR calculations, the action of the substance was determined as the change from a control in percent. The ED50 was determined by means of regression analysis.

[4] = biological target: T2, 5-HT re-uptake (Rattus norvegicus, UniProt P31652); test: Inhibition of 5-HT re-uptake in rat brain synaptosomes (P2 fraction, medulla + pons); type: biochemical; conditions: 10 μmol/l
T2 construct: synaptosomes are freshly isolated from rat brain areas; from tissue; host or cells: rat brain synaptosomes (P2 fraction), medulla + pons region, male rats
T2 sequence (P31652 whole entry): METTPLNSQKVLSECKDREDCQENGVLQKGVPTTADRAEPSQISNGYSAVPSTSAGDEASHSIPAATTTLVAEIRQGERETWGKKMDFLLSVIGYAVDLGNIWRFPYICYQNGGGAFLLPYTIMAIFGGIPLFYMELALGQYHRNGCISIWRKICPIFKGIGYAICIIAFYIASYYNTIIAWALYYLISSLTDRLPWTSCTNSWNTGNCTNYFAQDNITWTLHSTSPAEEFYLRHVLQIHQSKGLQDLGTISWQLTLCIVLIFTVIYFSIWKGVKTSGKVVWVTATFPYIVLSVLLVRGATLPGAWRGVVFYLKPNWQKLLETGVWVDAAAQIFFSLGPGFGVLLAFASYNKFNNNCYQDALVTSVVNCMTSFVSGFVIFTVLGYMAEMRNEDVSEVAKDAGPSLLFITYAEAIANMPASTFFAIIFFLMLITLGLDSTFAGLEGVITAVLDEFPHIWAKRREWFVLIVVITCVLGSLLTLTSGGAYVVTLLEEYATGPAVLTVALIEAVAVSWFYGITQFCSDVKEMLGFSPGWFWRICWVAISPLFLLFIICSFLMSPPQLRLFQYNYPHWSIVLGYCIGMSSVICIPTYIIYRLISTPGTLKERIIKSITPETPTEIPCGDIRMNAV
Source text: as §1, §2, §3

[5] = test system: mice; test: Forced swimming test (Porsolt test) in mice; type: in vivo; conditions: for Change in immobility phase versus control: 2.15 mg/kg i.p., mice
Method: c) Investigation of the Antidepressant Action in the Forced Swimming Test (Porsolt Test) in Mice
The investigations to determine the antidepressant action of the compounds of the formula I according to the invention were carried out in the forced swimming test (Porsolt test) in mice (Porsolt, R. et al., Arch. Int. Pharmacodyn. vol. 229, p. 327-336, (1977)). Male mice (20-25 g body weight) were placed individually for a period of 6 minutes in a shallow bowl of water from which they were unable to escape and were therefore forced to swim. After some time the animals gave up their swimming attempts and passed into an immobility phase. The duration of the immobility phase in the interval of 2-6 minutes after introduction of the animals was determined. The substance and vehicle groups each comprise 10 animals. Changes in the duration of the immobility phase are stated relative to the vehicle control. Differences versus the vehicle control are tested for significance with the aid of the Student's T test. Antidepressants induce a shortening of the immobility phase.

## CN(C)CCCC1(c2ccc(F)cc2)OCc2cc(C#N)ccc21 (stereo not shown) [Citalopram, citalopram]
[1]; dose range 0.56-10 mg/kg s.c.
  Change in body turns, maximum change: +397% (s.)
  Change in grid crossings, maximum change: +66% (n.s.)
[1]; mouse pups
  ED50: 1.2 mg/kg

## CN(C)CC1=C(c2cccnc2)CCCC1.Cl.Cl [Example 1, Dimethyl-(2-pyridin-3-yl-cyclohex-1-enylmethyl)amine dihydrochloride]
[2]
  inhibition at 10 µM: 35%
[3]; iv
  ED50: 1.66 mg/kg
[3]; formalin test in mice
  Inhibition of the nociceptive behaviour (in words): dose-dependent inhibition of the nociceptive behaviour
[1]; dose range 1.0-17 mg/kg s.c.
  Change in body turns, maximum change: +233% (n.s.)
  Change in grid crossings, maximum change: +32% (n.s.)
[1]; locomotion and coordination
  Changes in the crossings of the grid and body turns (in words): no significant changes in the crossings of the grid and body turns
[1]; pup vocalization test
  Reduction in the vocalization frequency (in words): significant reduction in the vocalization frequency
[1]; mouse pups
  ED50: 1.7 mg/kg
[4]
  inhibition at 10 µM: 83%
[5]
  Change in immobility phase versus control: −54%***
[5]; forced swimming test in mice
  Shortening of the immobility phase (in words): significant shortening of the immobility phase

## CNCC[C@H](Oc1cccc2ccccc12)c1cccs1 [duloxetine, reference compound]
[3]; ip
  ED50: 6.69 mg/kg
[5]
  Change in immobility phase versus control: −41%**

## COc1ccc(C(CN(C)C)C2(O)CCCCC2)cc1 (stereo not shown) [venlafaxine, reference compound]
[2]
  inhibition at 10 µM: 92%
[3]; iv
  ED50: 2.6 mg/kg
[1]; Mus musculus
  ED50: 8.1 mg/kg
[1]; dose range 0.3-56 mg/kg s.c.
  Change in body turns, maximum change: +141% (n.s.)
  Change in grid crossings, maximum change: +92% (n.s.)
[5]
  Change in immobility phase versus control: −66%***
